“Also recorded” adds a separate entry of the source. Where two headings read alike, the source gives them in different places.
How the values were obtained:
Assay type in all cases: cell-based, human
U251 glioblastoma cells [1] = experiment: Cell morphology / vacuolization by phase-contrast microscopy
U251 glioblastoma cells [2] = experiment: Sulforhodamine B (SRB) growth inhibition assay; details: for growth inhibitory (GI) activity, in words: 48 h SRB, Table 1, Table 2 (FIG. 64), FIG. 63; for GI50: Homo sapiens
Protocol: Cells experiencing methuosis initially undergo extreme cytoplasmic vacuolization which can be readily assessed by phase contrast microscopy. As viability is compromised (usually between 24-48 h), the cells detach from the culture surface and lose membrane integrity. […] Although methuosis can occur in a broad spectrum of human tumor cell lines, SAR studies were carried out with U251 glioblastoma cells. Therefore, this cell line was used in the present evaluation.
Total protein in adherent cells was measured by the sulforhodamine B (SRB) colorimetric assay, following standard procedures for anticancer drug screening used by the U.S. National Cancer Institute. […] On the day after plating, four wells were assayed to establish a pre-drug (time-0) baseline. Test compounds were diluted as described above and added to the remaining wells. The medium and compounds were replenished after 24 hr. SRB assays were performed at a 48 h endpoint as described, using a SpectraMax Plus 384 plate reader (Molecular Devices, Sunnyvale, Calif.) to determine absorbance at 515 nm.
Cells were seeded in 96-well plates as described in the methods. After 24 h, each compound was added at the indicated concentrations and SRB assays were performed after an additional 48 h. Each point represents the mean±SD of values from four wells. The dotted line on each graph indicates the average absorbance of four wells sampled at time-0 (i.e., the time that the compounds were added).
The human U251 glioblastoma cell line was obtained from the DCT Tumor Repository (National Cancer Institute, Fredrick, Md.). […] All test compounds were dissolved in DMSO and serially diluted in DMSO so that the desired final drug concentrations could be achieved by making a 1/1000 dilution into the culture medium. One day after plating, four wells were assayed to establish a pre-drug (time-0) baseline. At the same time, fresh medium containing test compounds was added to the remaining wells. Control wells received DMSO alone. SRB assays were performed at a 48 h endpoint. To minimize the impact of potential variations in stability among the compounds, medium with test compound was replenished after the first 24 h.

U251 glioblastoma cells [3] = experiment: Trypan blue dye-exclusion viability assay; details: for cell viability, in words: 10 μM, 2 days; for viability at 10 µM: Homo sapiens, U-251, 48 h, each compound at 10 μM for 2 days, mean ± SD of three cultures
Protocol: To directly compare the effects of different compounds on cell viability, the trypan blue dye-exclusion assay was utilized to distinguish live (unstained) from dead (blue) cells. U251 cells were seeded in 35 mm diameter dishes at a density of 100,000 cells/dish. Twenty-four hours later, test compounds were added in fresh medium at a final concentration of […] received an equivalent volume of vehicle (DMSO). […] At the end of the incubation, floating and adherent cells were combined and collected by centrifugation. Cells were washed with Hank's balanced salt solution (HBSS) and incubated with 0.2% trypan blue solution (Sigma, St. Louis, Mo.) for 5 min at room temperature. The percentage of dead cells was determined by light microscopy using a hemocytometer. Three separate cultures were assayed for each compound.
Cells were seeded in 35 mm dishes and treated for 48 h with compounds at a final concentration of […] blue dye-exclusion assays were performed as described in the methods. Values are the mean±SD of separate assays performed on three parallel cultures.

[4] = concentration not singled out ([…] and 10 μM or as in figure)

SMILES | cell morphology / vacuolization (U251 glioblastoma cells [1]; 10 μM) | growth inhibitory (GI) activity, in words (U251 glioblastoma cells [2]; U251) | GI50 (U251 glioblastoma cells [2]; U-251, 48 h, read-out: GI50) | GI50 (U251 glioblastoma cells [2]; U-251, U251, dose-response curves repeated six more times (Table 1 footnote g), read-out: GI50, means (±SD) for all seven determinations) | cell viability, in words (U251 glioblastoma cells [3]) | viability at 10 µM (U251 glioblastoma cells [3]) | cell morphology / vacuolization (U251 glioblastoma cells [1]; [4])
Cc1[nH]c2ccc(N)cc2c1/C=C/C(=O)c1ccncc1 [402g, trans-3-(5-amino-2-methylindol-3-yl)-1-(4-pyridinyl)-2-propen-1-one] | did cause vacuolization after 48 h | no GI activity in the concentration range tested |  |  |  |  | 
CCc1[nH]c2ccc(OC)cc2c1/C=C/C(=O)c1ccncc1 [compound 107a, trans-3-(2-ethyl-5-methoxyindol-3-yl)-1-(4-pyridinyl)-2-propen-1-one] | morphological effects indistinguishable from those observed with the same concentration of MOMIPP | not statistically different from the MOMIPP | 3.2 µM | 2.8 µM | substantial loss of cell viability | 34.6 ± 1.1% | 
NCc1ccc2[nH]cc(/C=C/C(=O)c3ccncc3)c2c1 [402i, trans-3-(5-aminomethylindol-3-yl)-1-(4-pyridinyl)-2-propen-1-one] |  | completely inactive in both growth inhibition and vacuolization assays |  |  |  |  | completely inactive in both growth inhibition and vacuolization assays
COc1ccc2[nH]cc(/C=C/C(=O)c3ccncc3)c2c1 [compound 13, trans-3-(5-methoxy-1H-indol-3-yl)-1-(4-pyridinyl)-2-propen-1-one] | extensively vacuolated |  | 18.6 µM |  | only minimally affected | 91.2 ± 0.7% | 
COc1ccc2[nH]c(C(C)C)c(/C=C/C(=O)c3ccncc3)c2c1 [107c, trans-3-(2-isopropyl-5-methoxyindol-3-yl)-1-(4-pyridinyl)-2-propen-1-one] | extensively vacuolated |  | > 20 µM |  | only minimally affected | 78.8 ± 1.1% | 
CCCCOc1ccc2[nH]c(C)c(/C=C/C(=O)c3ccncc3)c2c1 [402d, trans-3-(5-butoxy-2-methylindole-3-yl)-1-(4-pyridinyl)-2-propen-1-one] |  | markedly reduced; also recorded: complete lack of GI activity |  |  |  |  | produced much fewer and smaller vacuoles and had little effect on cell density
CCCc1[nH]c2ccc(OC)cc2c1/C=C/C(=O)c1ccncc1 [107b, trans-3-(5-methoxy-2-propylindol-3-yl)-1-(4-pyridinyl)-2-propen-1-one] | extensively vacuolated |  | 15.3 µM |  | only minimally affected | 83.9 ± 2.3% | 
COc1ccc2[nH]c(C)c(/C=C/C(=O)c3cccnc3)c2c1 [meta-MOMIPP, trans-3-(5-methoxy-2-methylindol-3-yl)-1-(3-pyridinyl)-2-propen-1-one] | did not accumulate vacuoles |  | 16.9 µM |  |  | 96.2 ± 1.3% | 
COc1ccc2[nH]c(CC(C)C)c(/C=C/C(=O)c3ccncc3)c2c1 [107d, trans-3-(2-isobutyl-5-methoxyindol-3-yl)-1-(4-pyridinyl)-2-propen-1-one] | extensively vacuolated |  | 16.6 µM |  | only minimally affected | 87.4 ± 1.5% | 

Source: US9061994B1, “Materials and methods useful to induce vacuolization, cell death, or a combination thereof” (The University of Toledo, priority 2011, dated 2015)
